For 8 molecules, IC50 and inhibition results are on record in patent publication US4579866A, “Phenylacetamides as anti-allergy, anti-asthma and anti-inflammatory agents” (USV Pharmaceutical Corp., priority 1984, dated 1986).

One assay deals with T1, RAT 5-LIPOXYGENASE (Rattus norvegicus, UniProt P12527).
T1 construct: A suspension of rat neutrophils in buffer; endogenous in cells; host or cells: rat neutrophils (polymorphonuclear leukocytes)
T1 sequence (P12527 1-673): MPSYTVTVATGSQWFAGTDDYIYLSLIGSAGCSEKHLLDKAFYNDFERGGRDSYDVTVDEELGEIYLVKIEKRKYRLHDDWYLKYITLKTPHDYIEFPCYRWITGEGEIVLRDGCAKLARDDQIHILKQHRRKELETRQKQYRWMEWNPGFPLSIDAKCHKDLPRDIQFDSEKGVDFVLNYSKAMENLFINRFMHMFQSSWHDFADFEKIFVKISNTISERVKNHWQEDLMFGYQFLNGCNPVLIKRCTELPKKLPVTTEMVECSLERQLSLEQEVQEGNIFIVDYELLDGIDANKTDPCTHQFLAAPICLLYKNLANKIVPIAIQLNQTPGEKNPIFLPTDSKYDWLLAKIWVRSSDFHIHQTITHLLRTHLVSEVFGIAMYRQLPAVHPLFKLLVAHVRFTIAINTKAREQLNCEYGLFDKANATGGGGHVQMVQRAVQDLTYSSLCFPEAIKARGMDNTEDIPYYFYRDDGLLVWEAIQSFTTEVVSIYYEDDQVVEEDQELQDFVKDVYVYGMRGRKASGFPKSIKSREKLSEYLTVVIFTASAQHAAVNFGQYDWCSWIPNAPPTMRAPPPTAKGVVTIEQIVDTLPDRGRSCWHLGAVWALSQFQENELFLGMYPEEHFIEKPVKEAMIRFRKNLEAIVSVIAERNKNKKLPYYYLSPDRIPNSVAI
Put plainly: Biosynthesis of 5-HETE by rat polymorphonuclear leukocytes in vitro (inhibition of rat 5-lipoxygenase). As to conditions: rat neutrophils, A23187, 3 minutes at 30° C.; concentration at which 50% inhibition is observed; read-out: INHIBITION OF RAT 5-LIPOXYGENASE, I50. In kind it is cell-based. Here is the method:
Protocol for the Biosynthesis of 5-HETE by Rat Polymorphonuclear Leukocytes In Vitro
A suspension of rat neutrophils in buffer is incubated for 3 minutes at 30° C. with [^14 C]-arachidonic acid (AA) and calcium ionophore A23187. Citric Acid (2M) NDGA (10 mM) is used to quench the reaction. Following the addition of a trace amount of (^3 H)-5-HETE together with an excess of unlabeled 5-HETE to each tube, the mixture is extracted with chloroform/methanol. The organic layer is washed with dilute acid and an aliquot is transferred to glass tubes and dried. The residue is dissolved in a small volume of chloroform and an aliquot is spotted on silica gel TLC sheets, which are developed with an ethyl acetate/isoctane/water/acetic acid solvent system. The 5-HETE spots are visualized under UV light, cut out and placed in scintillation vials for counting. After adjusting for the extraction efficiency, the amount (pmole) of [^14 C]-5-HETE in each of the tubes is quantitated. The net pmoles of 5-HETE are obtained by subtracting the pmoles of 5-HETE in the tubes containing buffer alone (blank) from the pmoles of 5-HETE in the tubes containing […]. The ability of the test compounds to modulate the activity of this enzyme is determined by a decrease or increase in the net amount of 5-HETE produced.
(§1) If the percentage of inhibition exceeds 50%, the compounds are then evaluated in terms of response over a range of concentrations. From a plot of response against concentration, the I50 value is obtained. The I50 value is the concentration at which 50% inhibition is observed.

The target in the next assay is T2, HUMAN 5 LIPOXYGENASE (Homo sapiens, UniProt P09917).
T2 construct: A suspension of human neutrophils in buffer; endogenous in cells; host or cells: human neutrophils (PMNs) from venous blood of healthy volunteers
T2 sequence (P09917 1-674): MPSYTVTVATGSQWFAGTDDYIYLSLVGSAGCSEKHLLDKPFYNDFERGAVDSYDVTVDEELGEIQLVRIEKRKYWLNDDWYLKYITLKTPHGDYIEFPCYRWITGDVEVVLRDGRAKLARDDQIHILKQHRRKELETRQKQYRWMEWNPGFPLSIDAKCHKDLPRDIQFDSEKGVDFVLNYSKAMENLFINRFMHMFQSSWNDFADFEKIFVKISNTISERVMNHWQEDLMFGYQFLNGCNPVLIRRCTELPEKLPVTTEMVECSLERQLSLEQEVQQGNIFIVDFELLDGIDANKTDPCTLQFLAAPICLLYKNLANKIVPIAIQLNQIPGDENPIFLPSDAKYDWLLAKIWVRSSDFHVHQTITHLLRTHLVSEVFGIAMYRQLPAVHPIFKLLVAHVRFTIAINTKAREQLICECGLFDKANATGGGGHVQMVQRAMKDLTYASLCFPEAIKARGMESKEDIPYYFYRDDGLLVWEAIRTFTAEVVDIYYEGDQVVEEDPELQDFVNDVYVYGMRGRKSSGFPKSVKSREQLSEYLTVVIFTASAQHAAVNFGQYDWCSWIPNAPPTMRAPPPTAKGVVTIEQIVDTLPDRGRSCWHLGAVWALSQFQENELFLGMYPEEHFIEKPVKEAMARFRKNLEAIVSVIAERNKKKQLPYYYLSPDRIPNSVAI
Put plainly: Biosynthesis of 5-HETE by human polymorphonuclear leukocytes in vitro (inhibition of human 5-lipoxygenase). In kind it is cell-based. The following applies: human neutrophils, A23187, 3 minutes at 30° C.; for pIC50: concentration at which 50% inhibition is observed, read-out: INHIBITION OF HUMAN 5 LIPOXYGENASE, I50. The protocol: Protocol for the Biosynthesis of 5-HETE (5(S)-Hydroxyeicosatetraenoic Acid) by Human Polymorphonuclear Leukocytes In Vitro
(A) Isolation of Human Neutrophils
Freshly drawn venous blood from healthy human volunteers is mixed with 2 mM ethylenediamine tetraacetic acid, and is sedimented at 1×g over 6% dextran-saline. The leukocyte layer is aspirated, and the cells are concentrated by centrifugation and are layered over stacked Percoll® solutions, having densities of 1.072, 1.082 and 1.100, respectively. PMNs are isolated at the interface between the two densest layers after centrifugation at 400×g. Contaminating red blood cells are lysed by a short treatment of 0.16M ammonium chloride.
A suspension of human neutrophils in buffer is incubated for 3 minutes at 30° C. with (^14 C)-arachidonic acid (AA) and calcium ionophore A23187. Citric Acid (2M)/NDGA*(10 mM) is used to quench the reaction. Following the addition of a trace amount of (^3 H)-5-HETE together with an excess of unlabeled 5-HETE to each tube, the mixture is extracted with chloroform/methanol. The organic layer is washed with dilute hydrochloric acid and the total volume is transferred to glass tubes and dried in vacuo. The residue is dissolved in a small volume of chloroform and is spotted on silica gel TLC sheets, which are developed with an ethyl acetate/iso-octane/water/acetic acid solvent system (11/5/10/1 v/v). The 5-HETE spots are visualized under UV light, cut out and placed in scintillation vials for quantitation of radioactivity. After adjusting for the extraction efficiency, the amount (pmole) of (^14 C)-5-HETE in each of the tubes is calculated. The net pmoles of 5-HETE are obtained by subtracting the pmole of 5-HETE in the tubes containing buffer alone (blank) from the pmoles of 5-HETE in the tubes containing […]. The ability of the test compound to modulate the activity of this enzyme is determined by a decrease or increase in the net amount of 5-HETE produced. This assay is a modification of that described by Bach and Brashler for rat peritoneal cells: Bach, M., Brashler, J.: Ionophore A23187-Induced Production of SRS-A by Rat Peritoneal Cells In Vitro: Evidence for Production by Mononuclear Cells. J. Immunol. 120 998-1005 (1978).
*NDGA-nordihydroguaiaretic acid
as §1

pIC50: −log10 of the molar value.

`CN(CCc1ccccc1)C(=O)Cc1ccc(OCc2ccccc2)c(Cl)c1` [N--[4-Benzyloxy-3-chlorophenylacetyl]-N--methyl-2-phenylethylamine]: the pIC50 is 5.38 on RAT 5-LIPOXYGENASE and 5.70 at HUMAN 5 LIPOXYGENASE.

Regarding `COC(=O)[C@@H](Cc1ccccc1)N(C)C(=O)Cc1ccc(OCCc2ccccc2)c(Cl)c1` [3-Chloro-4-phenylethyloxyphenylacetyl-N--methyl-D-phenylalanine methyl ester], the pIC50 at RAT 5-LIPOXYGENASE was 5.30. The same molecule showed an inhibition at 30 µM at HUMAN 5 LIPOXYGENASE of 28%.

As for `COC(=O)[C@@H](Cc1ccccc1)NC(=O)Cc1ccc(OCC2CC2)c(Cl)c1` [3-Chloro-4-cyclopropylmethyloxyphenylacetyl-D-phenylalanine methyl ester], the pIC50 at RAT 5-LIPOXYGENASE is 6.00; on HUMAN 5 LIPOXYGENASE it was 4.30.

Consider `COC(=O)[C@@H](Cc1ccccc1)NC(=O)Cc1ccc(OCCc2ccccc2)c(Cl)c1` [3-Chloro-4-phenylethyloxyphenylacetyl-D-phenylalanine methyl ester], for which the figures for the pIC50 at RAT 5-LIPOXYGENASE and at HUMAN 5 LIPOXYGENASE were 6.15 and 5.15, respectively.

Take `CN(CCc1ccccc1)C(=O)Cc1ccc(OCCc2ccccc2)c(Cl)c1` [N--[3-Chloro-4-phenylethyloxyphenylacetyl]-N--methyl-2-phenylethylamine]: the pIC50 was 5.66 on RAT 5-LIPOXYGENASE and 5.10 at HUMAN 5 LIPOXYGENASE.

Consider `COC(=O)[C@@H](Cc1ccccc1)NC(=O)Cc1ccc(OCc2ccccc2)c(Cl)c1` [4-Benzyloxy-3-Chlorophenylacetyl-D-Phenylalanine Methyl Ester], for which the pIC50 on RAT 5-LIPOXYGENASE was 6.60; at HUMAN 5 LIPOXYGENASE it was 6.22.

With `COC(=O)[C@@H](Cc1c[nH]c2ccccc12)NC(=O)Cc1ccc(OCc2ccccc2)c(Cl)c1` [4-Benzyloxy-3-chlorophenylacetyl-D-tryptophan methyl ester], the results for the pIC50 at RAT 5-LIPOXYGENASE and at HUMAN 5 LIPOXYGENASE were 5.27 and 4.85, respectively.

With `COC(=O)[C@@H](Cc1ccccc1)NC(=O)Cc1ccc(OC(C)C)c(Cl)c1` [3-Chloro-4-isopropyloxyphenylacetyl-D-phenylalanine methyl ester], the pIC50 at RAT 5-LIPOXYGENASE was 5.70. For the same molecule, at HUMAN 5 LIPOXYGENASE, at 30 µM the inhibition was 95%.

The term inhibition denotes how much of the control response was suppressed. A high value points to a strong effect.
